Assay: Standing of the crystalline form at room temperature (polymorph stability)
Type: physicochemical
Conditions: standing at the condition of room temperature for one week; monohydrochloride

Structure (SMILES) | stability of the crystalline form (polymorphic conversion)
CCCn1cc(C)c2c(=O)[nH]c(-c3cc(S(=O)(=O)N4CCN(CC)CC4)ccc3OCC)nc21.Cl [A-type polymorphic substance of yonkenafil hydrochloride] [2-[2-ethoxy-5-(4-ethylpiperazine-1-sulfonyl)phenyl]-5-methyl-7-n-propyl-3,7-dihydropyrrolo[2,3-d]pyrimidin-4-one monohydrochloride] | more stable than the B-type polymorphic substance of yonkenafil hydrochloride
CCCn1cc(C)c2c(=O)[nH]c(-c3cc(S(=O)(=O)N4CCN(CC)CC4)ccc3OCC)nc21.Cl [B-type polymorphic substance of yonkenafil hydrochloride] [2-[2-ethoxy-5-(4-ethylpiperazine-1-sulfonyl)phenyl]-5-methyl-7-n-propyl-3,7-dihydropyrrolo[2,3-d]pyrimidin-4-one monohydrochloride] | can be converted into the A-type polymorphic substance of yonkenafil hydrochloride

Source: patent US20170349592A1, “POLYMORPHIC SUBSTANCE OF YONKENAFIL HYDROCHLORIDE, PREPARATION METHOD THEREFOR, AND COMPOSITION AND USE THEREOF” (Yangtze River Pharmaceutical Group Co., Ltd., priority 2014, published 2017)
